Values joined by “and” are separate entries in the source; they are usually repeats but may differ in a detail not shown here. Identical values can stand only once. “Also recorded” adds a separate entry of the source. Like-named read-outs stand apart in the source and are kept apart here. Marks after values point to notes of the source that are not given here.
Key:
[1] = tested on: human endometrial adenocarcinoma cells (Ishikawa); assay: Estrogenic potency in Ishikawa cells, induction of alkaline phosphatase (AlkP); type: cell-based; settings: for Ishikawa cell AlkP (RSA): relative stimulatory activity = EC50 of E2 / EC50 of analog x 100, E2 = 100, 3 days, ± SD
Procedure: Estrogenic Potency in Ishikawa Cells. The estrogenic potency of the E2-analogs was determined in an estrogen bioassay, the induction of alkaline phosphatase (AlkP) in human endometrial adenocarcinoma cells (Ishikawa) grown in 96-well microtiter plates as we have previously described.^38 In short, the cells are grown in phenol red free medium with estrogen depleted (charcoal stripped) bovine serum in the presence or absence of varying amounts of the steroids, across a dose range of at least 6 orders of magnitude. […] After 3 days, the cells are washed, frozen and thawed, and then incubated with 5 mM p-nitrophenyl phosphate, a chromogenic substrate for the AlkP enzyme, at pH 9.8. To ensure linear enzymatic analysis, the plates are monitored kinetically for the production of p-nitrophenol at 405 nm. […] Each compound was analyzed in at least 3 separate experiments performed in duplicate.

[2] = tested on: esterase, rat hepatic microsomes; assay: Esterase hydrolysis in rat hepatic microsomes; type: in vitro ADME
Procedure: Esterase. Esterase activity was measured in rat hepatic microsomes essentially using the conditions described^41 with some minor modifications. Briefly, rat hepatic microsomes were incubated with 50 μM E2-alkyl ester. Since the rates of reaction are widely different for the various esters, the incubation times and enzyme concentration were varied accordingly to obtain linear kinetics. In every experiment, E16-1,2 was run concurrently to normalize the rate of hydrolysis of each compound. At several appropriate time points during the incubation (37° C.), 100 μL aliquots were quenched with a solution of 2 μg of the internal standard, 6-ketoestradiol in 33 μL of CH3CN, 33 μL of THF and 5 μL of glacial HOAc. The mixture was centrifuged and analyzed for the esterase-hydrolysis product (the corresponding E2-carboxylic acid) by reversed phase HPLC: E16-1,0; E15-1,0; E15-2,0; and E15-3,0 by HPLC with system H-29. Peaks for the hydrolysis product (E16-1,0 tR=10.7 min; E15-1,0 tR=6.9 min; E15-2,0 tR=9.9 min; E15-3,0 tR=14 min;) and the internal standard (tR=11.8 min for system H-29 and tR=8.8 min for system H-30 were quantified at 280 nm on the HPLC UV detector. The UV absorbance was converted to nmoles of product by comparison to standard curves and corrected for recovery of the internal standard, 6-ketoestradiol. The velocity of the reaction for each ester, in nmol product/min/mg protein, was then normalized to the ester, E16-1,2 and is shown in Table 1 as relative hydrolytic activity (RHA) The enzymatic velocity for the hydrolysis of E16-1,2 was 2.34±0.8 (S.D.) nmol product/min/mg protein over the various experiments. All compounds were tested in triplicate in at least 2 separate experiments

[3] = molecular target: T1, ER (ERα) in uterine cytosol (Rattus norvegicus, UniProt P06211); assay: Competitive binding to the estrogen receptor in rat uterine cytosol; settings: for Estrogen Receptor (RBA): relative binding affinity, E2 = 100, rat uterine cytosol, 1 nM [3H]E2, ± SD; for RBA: relative to E2
T1 sequence (P06211 1-600): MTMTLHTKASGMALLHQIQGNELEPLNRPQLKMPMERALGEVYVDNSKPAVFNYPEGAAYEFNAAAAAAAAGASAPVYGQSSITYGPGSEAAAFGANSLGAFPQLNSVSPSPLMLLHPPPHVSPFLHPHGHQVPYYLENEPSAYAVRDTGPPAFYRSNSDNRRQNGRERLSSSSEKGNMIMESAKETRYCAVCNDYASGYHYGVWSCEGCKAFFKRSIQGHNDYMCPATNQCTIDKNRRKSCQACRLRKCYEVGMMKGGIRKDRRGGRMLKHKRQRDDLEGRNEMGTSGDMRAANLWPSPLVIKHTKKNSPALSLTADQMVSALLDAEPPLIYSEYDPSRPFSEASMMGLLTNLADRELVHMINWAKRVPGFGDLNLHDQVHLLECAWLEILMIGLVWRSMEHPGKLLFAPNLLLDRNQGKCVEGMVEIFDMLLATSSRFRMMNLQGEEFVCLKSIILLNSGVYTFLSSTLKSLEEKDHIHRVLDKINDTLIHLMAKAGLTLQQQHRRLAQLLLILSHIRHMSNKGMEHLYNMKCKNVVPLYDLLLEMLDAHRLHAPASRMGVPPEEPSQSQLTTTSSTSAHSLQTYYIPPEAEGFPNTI

[4] = tested on: uterus of immature rats; assay: In vivo estrogen bioassay: uterine weight (uterotrophic assay, systemic); design: species or system rat; settings: for uterotrophic response (in words) / Uterotrophic R.A × 10^3: 100 μg dose; for Uterotrophic R.A × 10^3: activity relative to E2, × 10^3
Procedure: In Vivo Estrogen Bioassays: Uterine Weight. […] Control animals received sesame oil. On the fourth day, the animals were killed, the uteri were removed, dissected, blotted and weighed. Except where noted, each compound was assayed in 2 separate experiments with n=5.

[5] = molecular target: T2, ligand binding domain (LBD) of human ERβ (M214-Q530) (Homo sapiens, UniProt Q92731); assay: Competitive binding to the LBD of human ERβ in E. coli lysates; settings: RBA compared to E2 (=100), [3H]E2, ± SD
T2 construct: human ERβ (M214-Q530); made in house; host or cells: Escherichia coli (lysate used)
T2 sequence (Q92731 214-530): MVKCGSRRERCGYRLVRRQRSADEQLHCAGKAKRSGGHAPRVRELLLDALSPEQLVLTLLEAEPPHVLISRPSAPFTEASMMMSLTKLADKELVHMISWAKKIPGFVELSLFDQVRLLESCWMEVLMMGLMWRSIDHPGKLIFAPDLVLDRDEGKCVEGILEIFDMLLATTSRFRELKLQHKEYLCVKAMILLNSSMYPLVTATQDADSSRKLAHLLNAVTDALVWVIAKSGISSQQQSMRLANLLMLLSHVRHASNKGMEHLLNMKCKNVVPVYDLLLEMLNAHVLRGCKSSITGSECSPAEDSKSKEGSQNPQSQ

[6] = molecular target: T3, ligand binding domain (LBD) of human ERα (M250-V595) (Homo sapiens, UniProt P03372); assay: Competitive binding to the LBD of human ERα in E. coli lysates; settings: for selectivity / preference for ERα: ERα versus ERβ LBD; for ERα RBA: RBA compared to E2 (=100), LBD of human ERα in E. coli lysates, [3H]E2; for ERα RBA / ERα/ERβ (ratio of RBA): ± SD; for ERα/ERβ (ratio of RBA): human LBDs
T3 construct: human ERα (M250-V595); made in house; host or cells: Escherichia coli (lysate used)
T3 sequence (P03372 250-595): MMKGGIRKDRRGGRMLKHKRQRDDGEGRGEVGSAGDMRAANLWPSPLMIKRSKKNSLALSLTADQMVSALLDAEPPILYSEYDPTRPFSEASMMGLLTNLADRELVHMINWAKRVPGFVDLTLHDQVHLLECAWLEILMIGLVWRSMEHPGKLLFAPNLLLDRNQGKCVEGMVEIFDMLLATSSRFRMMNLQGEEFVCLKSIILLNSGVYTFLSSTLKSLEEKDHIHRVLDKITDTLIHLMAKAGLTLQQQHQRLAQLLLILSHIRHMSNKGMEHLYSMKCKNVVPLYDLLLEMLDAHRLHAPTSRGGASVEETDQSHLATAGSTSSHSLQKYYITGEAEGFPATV

[7] = tested on: vagina of ovariectomized mice; assay: In vivo estrogen bioassay: vaginal reductases (local); design: species or system mouse; settings: for Vaginal R.A × 10^3: activity relative to E2, × 10^3, 50 ng dose
Procedure: In Vivo Estrogen Bioassays: Vaginal reductases. […] The formazan product in the organic extract is quantified at 500 nm. Except where noted, each compound was assayed on at least 2 separate occasions with at least 5–6 replicates each time.

[8] = n.s. = not significantly different from the control

Row | Compound | Ishikawa cell AlkP (RSA) [1] | Estrogen Receptor (RBA) [3] | Esterase (RHA) [2] | also measured
1 | 2′-Fluoroethyl(3,17β-dihydroxyestra-1,3,5(10)-trien-15α-yl)formate [E15-1,2F1] | 3 ± 0.2 |  |  | Esterase (RHA) ([2]; relative hydrolytic activity in comparison to E16-1,2 (=100), 50 μM ester, 37° C., ± SD): 4.5 ± 0.1
2 | C[C@]12CC[C@@H]3c4ccc(O)cc4CC[C@H]3[C@@H]1CCC2=O [Compound E1, estrone, reference compound] | 4 ± 2 |  |  | 
3 | C[C@]12CC[C@@H]3c4ccc(O)cc4CC[C@H]3[C@@H]1[C@@H](C(=O)O)C[C@@H]2O [E15-1,0, 3,17β-Dihydroxyestra-1,3,5(10)-trien-15α-carboxylic acid] |  |  |  | binding to the estrogen receptor (in words) [3]: does not bind to the estrogen receptor; also recorded: very low, not measurable; estrogenic activity in the Ishikawa cell assay (in words) [1]: nor does it have estrogenic activity; also recorded: very low, not measurable
4 | CCOC(=O)[C@H]1C[C@H](O)[C@@]2(C)CC[C@@H]3c4ccc(O)cc4CC[C@H]3[C@H]12 [E15-1,2, Ethyl(3,17β-dihydroxyestra-1,3,5(10)-trien-15α-yl)formate] | 18 ± 10 | 25 ± 12 | 2.3 ± 0.1 | uterotrophic response (in words) [4]: neither of these 15α-substituted estrogens produced a statistically significant uterotrophic response; also recorded: neither of these 15α-alkyl esters produce a statistically significant estrogenic response in the uterus; also recorded: inactive in the uterotrophic assay; uterotrophic stimulation at 300 μg dose, equivalent ng of E2 ([4]; 300 μg dose, statistically significant (P<0.05)): 5 ng of E2; Uterotrophic R.A × 10^3 [4, 8]: n.s.; RBA [3]: 25%; RSA ([1]; relative to E2): 18%; ERβ RBA [5]: 7 ± 2; selectivity / preference for ERα [6]: about 3 fold; ERα RBA [6]: 22 ± 5; ERα/ERβ (ratio of RBA) [6]: 3 ± 0.6; Vaginal R.A × 10^3 [7]: 0.42; activity in the vaginal assay (in words) ([7]; mouse, in vivo): very active in the vaginal assay
5 | CCCOC(=O)[C@H]1C[C@H](O)[C@@]2(C)CC[C@@H]3c4ccc(O)cc4CC[C@H]3[C@H]12 [E15-1,3, Propyl(3,17β-dihydroxyestra-1,3,5(10)-trien-15α-yl)formate] | 2 ± 1 | 17 ± 5 |  | 
6 | CC(C)OC(=O)[C@H]1C[C@H](O)[C@@]2(C)CC[C@@H]3c4ccc(O)cc4CC[C@H]3[C@H]12 [E15-1,3i, Isopropyl(3,17β-dihydroxyestra-1,3,5(10)-trien-15α-yl)formate] | 0.3 ± 0.06 | 5 ± 4 | 0.4 ± 0.1 | RHA ([2]; rat, 50 μM): 0.3%
7 | CCCCOC(=O)[C@H]1C[C@H](O)[C@@]2(C)CC[C@@H]3c4ccc(O)cc4CC[C@H]3[C@H]12 [E15-1,4, Butyl(3,17β-dihydroxyestra-1,3,5(10)-trien-15α-yl)formate] | 0.7 ± 0.4 | 8 ± 2 | 7 ± 0.5 | 
8 | C[C@]12CC[C@@H]3c4ccc(O)cc4CC[C@H]3[C@@H]1[C@@H](CC(=O)O)C[C@@H]2O [E15-2,0, (3,17β-Dihydroxyestra-1,3,5(10)-trien-15α-yl)acetic acid] | 0.2 ± 0.2 | <0.1 |  | 
9 | COC(=O)C[C@H]1C[C@H](O)[C@@]2(C)CC[C@@H]3c4ccc(O)cc4CC[C@H]3[C@H]12 [E15-2,1, Methyl(3,17β-dihydroxyestra-1,3,5(10)-trien-15α-yl)acetate] | 1 ± 1 | 5 ± 3 | 31 ± 6 | RBA [3]: 5%
10 | CCOC(=O)C[C@H]1C[C@H](O)[C@@]2(C)CC[C@@H]3c4ccc(O)cc4CC[C@H]3[C@H]12 [E15-2,2, Ethyl(3,17β-dihydroxyestra-1,3,5(10)-trien-15α-yl)acetate] | 0.4 ± 0.5 | 2 ± 0 | 71 ± 7 | RBA [3]: 2%
11 | C[C@]12CC[C@@H]3c4ccc(O)cc4CC[C@H]3[C@@H]1[C@@H](CCC(=O)O)C[C@@H]2O [E15-3,0, 3-(3,17β-Dihydroxyestra-1,3,5(10)-trien-15α-yl)propionic acid] | 0 | 0 |  | 
12 | COC(=O)CC[C@H]1C[C@H](O)[C@@]2(C)CC[C@@H]3c4ccc(O)cc4CC[C@H]3[C@H]12 [E15-3,1, Methyl 3-(3,17β-dihydroxyestra-1,3,5(10)-trien-15α-yl)propionate] | 0 | 0.8 ± 0.1 | 248 ± 26 | 
13 | CCOC(=O)CC[C@H]1C[C@H](O)[C@@]2(C)CC[C@@H]3c4ccc(O)cc4CC[C@H]3[C@H]12 [E15-3,2, Ethyl 3-(3,17β-dihydroxyestra-1,3,5(10)-trien-15α-yl)propionate] | 0 | <0.1 | 674 ± 14 | 
14 | CCOC(=O)[C@@H]1C[C@H]2[C@@H]3CCc4cc(O)ccc4[C@H]3CC[C@]2(C)[C@H]1O [E16-1,2, reference compound] |  |  |  | ERβ RBA [5]: 0.3 ± 0.1; enzymatic velocity for the hydrolysis ([2]; rat hepatic microsomes, 50 μM ester, 37° C., ± S.D. over the various experiments): 2.34±0.8 nmol product/min/mg protein; selectivity / preference for ERα [6]: ~95 fold; ERα RBA [6]: 27 ± 6; ERα/ERβ (ratio of RBA) [6]: 95 ± 47
15 | C[C@]12CC[C@@H]3c4ccc(O)cc4CC[C@H]3[C@@H]1C[C@@H](C(=O)OCCF)[C@@H]2O [E16-1,2F1, reference compound] |  |  |  | uterotrophic response (in words) [4]: small but statistically significant response; Uterotrophic effect 100 μg dose (ng E2 equivalent) ([4]; 100 μg total dose s.c. over 3 days, immature rats, compared to 5 ng E2, brackets = range, n.s. = not significantly different from the control): 2 ng E2 equivalent and 2^b ng E2 equivalent; Uterotrophic R.A × 10^3 [4, 8]: 0.02; Vaginal effect 50 ng dose (pg E2 equivalent) ([7]; 50 ng instilled into the vagina, ovariectomized mice, compared to 50 pg E2, brackets = range): 21^b pg E2 equivalent; Vaginal R.A × 10^3 [7]: 0.42

From patent US7015211B2 (Yale University, priority 2003, dated 2006)
